Reference: US6734316B2, “Esters of fatty acids and juvenoid alcohols, and a method of their preparation and use” (Institute of Organic Chemistry and Biochemistry ASCR, priority 2000, dated 2004)

test system: termite Prorhinotermes simplex; experiment: Force feeding test (FF): juvenilizing effect (induction of soldier caste differentiation) on termite pseudergates; type: in vivo; details: 500 ppm in treated food, 60 pseudergates, 16 days, soldier caste induction in percents of surviving individuals
Source text: A Way of Screening of the Biological Activity of the Compound Claimed in the claim 1 of the General Formula I Against Termite Prorhinotermes Simplex
Termites have only a sample of food treated with the compound claimed in the claim 1 of the general formula I in the force feeding test (FF), but a choice between a sample of food treated with the compound claimed in the claim 1 of the general formula I and a reference sample of food treated with acetone only. A treatment of the food samples with the compound I claimed in the claim 1 has been made in at least two concentrations, 500 ppm and 5 ppm. A number of 60 pseudergates was exposed to a treatment in each test, and each test is twice repeated. Each test has 16 days duration. The induction of the soldier caste differentiation has been evaluated as the juvenilizing effect. The result is given in percents of the number of surviving individuals. The juvenoid methoprene has been used as the reference compound for testing of the biological activity of the compound I claimed in the claim 1. The results of screening of several structures corresponding the general formula I claimed in the claim 1 in a concentration of 500 ppm are given in Table 1.

Row | SMILES | Juvenilizing effect [%]
1 | CCCC(=O)O[C@@H]1CCCC[C@H]1Cc1ccc(OCCNC(=O)OCC)cc1 (relative stereo) [Ethyl N-{2-{4-[(trans-2-butanoyloxycyclohexyl)methyl]phenoxy}ethyl} carbamate] | 87.4
2 | CCCCCCCC/C=C\CCCCCCCC(=O)O[C@H]1CCCC[C@H]1Cc1ccc(OCCNC(=O)OCC)cc1 (relative stereo) [Ethyl N-{2-{4-[(cis-2-(cis-9-octadecenoyl)oxycyclohexyl)methyl]phenoxy}ethyl} carbamate] | 93.7
3 | CCCCCCCCCCCCCCCC(=O)O[C@H]1CCCC[C@H]1Cc1ccc(OCCNC(=O)OCC)cc1 (relative stereo) [Ethyl N-{2-{4-[(cis-2-hexadecanoyloxycyclohexyl)methyl]phenoxy}ethyl} carbamate] | 89.1
4 | COC(C)(C)CCC[C@H](C)C/C=C/C(C)=C/C(=O)OC(C)C (racemic) [Methoprene, methoprene, reference compound] | 1.3
5 | CCCCCCCCCCCCCCCCCC(=O)O[C@@H]1CCCC[C@H]1Cc1ccc(OCCNC(=O)OCC)cc1 (relative stereo) [Ethyl N-{2-{4-[(trans-2-octadecanoyloxycyclohexyl)methyl]phenoxy}ethyl} carbamate] | 70.0
6 | CCCC(=O)O[C@H]1CCCC[C@H]1Cc1ccc(OCCNC(=O)OCC)cc1 (relative stereo) [Ethyl N-{2-{4-[(cis-2-butanoyloxycyclohexyl)methyl]phenoxy}ethyl} carbamate] | 86.1
7 | CCCCCCCCCCCCCCCC(=O)O[C@@H]1CCCC[C@H]1Cc1ccc(OCCNC(=O)OCC)cc1 (relative stereo) [Ethyl N-{2-{4-[(trans-2-hexadecanoyloxycyclohexyl)methyl]phenoxy}ethyl} carbamate] | 90.1
8 | CCCCCCCC/C=C\CCCCCCCC(=O)O[C@@H]1CCCC[C@H]1Cc1ccc(OCCNC(=O)OCC)cc1 (relative stereo) [Ethyl N-{2-{4-[(trans-2-(cis-9-octadecenoyl)oxycyclohexyl)methyl]phenoxy}ethyl} carbamate] | 64.7
9 | CCCCCCCCCCCCCCCCCC(=O)O[C@H]1CCCC[C@H]1Cc1ccc(OCCNC(=O)OCC)cc1 (relative stereo) [Ethyl N-{2-{4-[(cis-2-octadecanoyloxycyclohexyl)methyl]phenoxy}ethyl} carbamate] | 40.0
